Like-named read-outs stand apart in the source and are kept apart here.

Results on 15 molecules are retold here after patent publication US12595267B2, “Preparation method for amide compound and application thereof in field of medicine” (Shanghai Synergy Pharmaceutical Sciences Co., Ltd., priority 2019, dated 2026).

One data set relates to WSU-DLCL2 cells. The data set can be described thus: Calcein AM proliferation assay, WSU-DLCL2 cells. It is filed as cell-based, human. As to conditions: Homo sapiens, read-out: WSU-DLCL2 proliferation IC50.
The next data set deals with Pfeiffer cells. The data set can be described thus: Calcein AM proliferation assay, Pfeiffer cells. It is filed as cell-based, human. As to conditions: Homo sapiens, Pfeiffer, read-out: Pfeiffer proliferation IC50.
For another data set, the system named is Karpas 422 cells. The data set can be described thus: Calcein AM proliferation assay, Karpas 422 cells. It is filed as cell-based, human. Particulars: Homo sapiens, read-out: Karpas422 proliferation IC50.
Another data set concerns the target wild-type EZH2 (Homo sapiens, UniProt Q15910). The data set can be described thus: Radiometric assay of activity on wild-type PRC2 EZH2.
Data set [1] can be described thus: Pharmacokinetics experiment in rats. It is filed as in vivo. Particulars: rat, plasma, male SD rats; for bioavailability: oral 20 mg/kg vs intravenous 4 mg/kg, read-out: Bioavailability (F %); for AUC: read-out: Area under the curve (AUC); for half-life: read-out: Half life (T1/2) (converted); for Cmax: read-out: Blood drug level (Cmax). The procedure:
Male SD rats weighing 200-300 g and 8 weeks old were used as experimental animals. […] The pharmacokinetic behavior of the compound of the present invention in rats was studied, and the pharmacokinetic characteristics thereof were evaluated.
A certain amount of the compound was weighed, dissolved in 0.10% tween for vortex and ultrasound, and then 0.5% sodium carboxymethyl cellulose (CMC-Na) solution was added to prepare a uniform solution.
The above-mentioned compounds were applied intravenously and orally to rats at a dose of 4 mg/kg and a dose of 20 mg/kg, respectively. At 0.083 h, 0.25 h, 0.5 h, 1.0 h, 2.0 h, 4.0 h, 6.0 h, 8.0 h, 12.0 h, and 24.0 h after application, 0.2 mL of blood was collected from the orbit, and placed in an anticoagulant tube, which was centrifuged at 6000 rpm for 10 minutes at 4° C. The plasma was separated and stored at −80° C.

The target in the next data set is T1, Mutant EZH2 (Y641F) (Homo sapiens, UniProt Q15910, Y641F).
T1 construct: purchased BPS 51004
The data set can be described thus: AlphaLISA assay on mutant PRC2 complex, EZH2 Y641F. It is filed as biochemical.

The next data set concerns the target T2, Mutant EZH2 (Y641N) (Homo sapiens, UniProt Q15910, Y641N).
T2 construct: purchased BPS 51004
The data set can be described thus: AlphaLISA assay on mutant PRC2 complex, EZH2 Y641N. It is filed as biochemical. A general note: Alpha assays give light when donor and acceptor beads are brought close together.

Where [2] appears, read: WSUDLCL2, day 14 data, Calcein AM staining.
Setting [3] is: KARPAS-422, day 14 data, Calcein AM staining.
Where [4] appears, read: day 14 data, Calcein AM staining.

Sequence of wild-type EZH2 (Q15910 whole entry): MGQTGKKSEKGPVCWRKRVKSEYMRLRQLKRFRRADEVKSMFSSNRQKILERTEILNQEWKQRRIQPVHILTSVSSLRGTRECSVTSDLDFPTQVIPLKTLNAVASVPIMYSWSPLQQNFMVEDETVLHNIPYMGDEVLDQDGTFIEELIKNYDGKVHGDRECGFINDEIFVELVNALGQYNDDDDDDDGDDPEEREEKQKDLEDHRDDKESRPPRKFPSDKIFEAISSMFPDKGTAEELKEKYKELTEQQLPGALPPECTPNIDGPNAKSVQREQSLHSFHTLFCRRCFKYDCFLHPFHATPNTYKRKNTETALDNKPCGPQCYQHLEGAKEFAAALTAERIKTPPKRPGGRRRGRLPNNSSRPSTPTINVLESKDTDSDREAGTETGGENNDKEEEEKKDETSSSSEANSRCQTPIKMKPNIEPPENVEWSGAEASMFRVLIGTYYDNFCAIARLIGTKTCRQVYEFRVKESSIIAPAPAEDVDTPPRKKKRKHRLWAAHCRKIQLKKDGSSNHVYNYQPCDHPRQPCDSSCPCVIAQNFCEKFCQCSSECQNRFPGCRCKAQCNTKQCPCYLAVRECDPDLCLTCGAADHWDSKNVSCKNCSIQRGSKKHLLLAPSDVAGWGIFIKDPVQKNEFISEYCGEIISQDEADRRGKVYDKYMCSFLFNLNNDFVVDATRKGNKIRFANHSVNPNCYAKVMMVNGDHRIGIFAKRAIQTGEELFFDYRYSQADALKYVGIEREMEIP
Sequence of wild-type EZH2 (O75530 whole entry partner): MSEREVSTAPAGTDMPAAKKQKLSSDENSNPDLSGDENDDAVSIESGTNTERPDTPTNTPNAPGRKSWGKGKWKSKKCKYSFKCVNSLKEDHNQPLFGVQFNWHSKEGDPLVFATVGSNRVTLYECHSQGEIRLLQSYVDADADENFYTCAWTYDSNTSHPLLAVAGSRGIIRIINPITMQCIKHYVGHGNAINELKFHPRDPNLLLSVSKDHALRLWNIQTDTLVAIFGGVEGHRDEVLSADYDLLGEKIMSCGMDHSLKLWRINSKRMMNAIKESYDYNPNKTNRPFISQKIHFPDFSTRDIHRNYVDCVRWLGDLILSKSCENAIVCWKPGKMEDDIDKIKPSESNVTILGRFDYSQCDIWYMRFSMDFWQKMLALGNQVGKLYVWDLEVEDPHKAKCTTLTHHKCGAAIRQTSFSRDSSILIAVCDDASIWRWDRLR
Sequence of wild-type EZH2 (Q15022 whole entry partner): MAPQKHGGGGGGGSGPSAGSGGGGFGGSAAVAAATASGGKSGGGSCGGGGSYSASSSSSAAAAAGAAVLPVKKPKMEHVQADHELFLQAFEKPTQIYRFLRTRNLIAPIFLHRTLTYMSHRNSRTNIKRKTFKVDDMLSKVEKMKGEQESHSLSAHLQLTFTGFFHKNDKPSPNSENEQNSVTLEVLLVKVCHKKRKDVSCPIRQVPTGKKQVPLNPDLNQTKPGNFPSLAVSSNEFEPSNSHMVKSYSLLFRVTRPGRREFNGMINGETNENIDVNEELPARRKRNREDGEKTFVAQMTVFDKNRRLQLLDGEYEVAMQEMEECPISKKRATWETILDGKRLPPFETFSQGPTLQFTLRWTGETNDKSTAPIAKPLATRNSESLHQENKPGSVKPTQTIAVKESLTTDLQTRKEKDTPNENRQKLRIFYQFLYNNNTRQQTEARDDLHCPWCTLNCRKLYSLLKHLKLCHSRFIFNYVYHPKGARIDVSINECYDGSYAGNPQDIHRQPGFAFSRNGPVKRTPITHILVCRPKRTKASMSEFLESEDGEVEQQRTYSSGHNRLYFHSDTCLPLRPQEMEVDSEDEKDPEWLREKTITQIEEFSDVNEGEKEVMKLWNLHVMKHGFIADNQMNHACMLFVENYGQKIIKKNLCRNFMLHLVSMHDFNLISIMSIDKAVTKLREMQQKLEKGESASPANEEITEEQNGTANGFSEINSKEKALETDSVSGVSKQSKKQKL
Sequence of wild-type EZH2 (Q09028 whole entry partner): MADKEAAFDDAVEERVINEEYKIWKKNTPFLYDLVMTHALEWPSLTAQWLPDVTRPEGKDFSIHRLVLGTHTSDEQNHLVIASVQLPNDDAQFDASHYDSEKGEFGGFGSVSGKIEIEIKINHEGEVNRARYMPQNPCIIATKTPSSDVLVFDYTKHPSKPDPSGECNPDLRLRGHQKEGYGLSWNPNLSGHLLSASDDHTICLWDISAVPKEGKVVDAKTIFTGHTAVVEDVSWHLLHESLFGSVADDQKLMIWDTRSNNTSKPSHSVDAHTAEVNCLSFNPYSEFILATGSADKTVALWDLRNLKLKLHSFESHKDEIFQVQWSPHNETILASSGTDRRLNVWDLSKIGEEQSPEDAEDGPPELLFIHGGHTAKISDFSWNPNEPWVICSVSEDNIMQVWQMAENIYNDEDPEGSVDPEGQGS
T1 sequence (Q15910 whole entry Y641F): as the sequence (Q15910 whole entry) above, with Y641F counted along it
T1 sequence (O75530 whole entry partner): as the sequence (O75530 whole entry partner) above
T1 sequence (Q15022 whole entry partner): as the sequence (Q15022 whole entry partner) above
T1 sequence (Q09028 whole entry partner): as the sequence (Q09028 whole entry partner) above
T1 sequence (Q6ZN18 whole entry partner): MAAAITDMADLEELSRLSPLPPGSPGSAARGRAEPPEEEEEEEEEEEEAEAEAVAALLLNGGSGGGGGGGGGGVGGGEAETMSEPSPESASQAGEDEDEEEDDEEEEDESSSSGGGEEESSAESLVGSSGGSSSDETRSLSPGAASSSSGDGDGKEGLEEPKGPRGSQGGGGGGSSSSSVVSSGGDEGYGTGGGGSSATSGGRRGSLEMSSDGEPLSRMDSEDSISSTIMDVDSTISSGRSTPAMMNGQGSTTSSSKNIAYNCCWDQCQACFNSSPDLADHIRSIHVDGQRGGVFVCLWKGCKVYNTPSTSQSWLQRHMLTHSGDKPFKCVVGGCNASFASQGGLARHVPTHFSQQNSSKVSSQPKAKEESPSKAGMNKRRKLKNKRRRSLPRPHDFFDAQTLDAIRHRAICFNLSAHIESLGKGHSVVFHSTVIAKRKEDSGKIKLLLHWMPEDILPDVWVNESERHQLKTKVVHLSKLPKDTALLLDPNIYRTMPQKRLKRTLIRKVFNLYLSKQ
T2 sequence (Q15910 whole entry Y641N): as the sequence (Q15910 whole entry) above, with Y641N counted along it
T2 sequence (O75530 whole entry partner): as the sequence (O75530 whole entry partner) above
T2 sequence (Q15022 whole entry partner): as the sequence (Q15022 whole entry partner) above
T2 sequence (Q09028 whole entry partner): as the sequence (Q09028 whole entry partner) above
T2 sequence (Q6ZN18 whole entry partner): as the sequence (Q6ZN18 whole entry partner) above

With `CCN(c1cc(-c2ccc(C3(C#N)CCOCC3)cc2)cc(C(=O)NCc2c(C)cc(C)[nH]c2=O)c1C)C1CCOCC1` [Compound 1, 4′-(4-cyanotetrahydro-2H-pyran-4-yl)-N-((4,6-dimethyl-2-carbonyl-1,2-dihydropyridin-3-yl)methyl)-5-(ethyl(tetrahydro-2H-pyran-4-yl)amino)-4-methyl-[1,1′-biphenyl]-3-formamide], the IC50 with WSU-DLCL2 cells (WSUDLCL2, […]) is 2.87 nM; in the data set with Pfeiffer cells ([…]), 1.34 nM; in the data set with Karpas 422 cells (KARPAS-422, […]), 2.15 nM.

Regarding `CCN(c1cc(-c2ccc(C3(C(=O)O)CCOCC3)cc2)cc(C(=O)NCc2c(C)cc(C)[nH]c2=O)c1C)C1CCOCC1` [Compound 2, 4-(3′-(((4,6-dimethyl-2-carbonyl-1,2-dihydropyridin-3-yl)methyl)carbamoyl)-5′-(ethyl(tetrahydro-2H-pyran-4-yl)amino)-4′-methyl-[1,1′-biphenyl]-4-yl)tetrahydro-2H-pyran-4-carboxylic Acid], the IC50 in the data set on WSU-DLCL2 cells (setting [2]) was 1.58 nM; in the data set on Karpas 422 cells (setting [3]) it was 1.08 nM.

On to `CCN(c1cc(-c2ccc(C3(CO)CCOCC3)cc2)cc(C(=O)NCc2c(C)cc(C)[nH]c2=O)c1C)C1CCOCC1` [Compound 3, N-((4,6-dimethyl-2-carbonyl-1,2-dihydropyridin-3-yl)methyl)-5-(ethyl(tetrahydro-2H-pyran-4-yl)amino)-4′-(4-(hydroxymethyl)tetrahydro-2H-pyran-4-yl)-4-methyl-[1,1′-biphenyl]-3-carboxamide], for which the IC50 is 2.68 nM with WSU-DLCL2 cells (setting [2]), 1.67 nM with Pfeiffer cells (setting [4]) and 2.5 nM in the data set with Karpas 422 cells (setting [3]).

With `CCN(c1cc(-c2ccc(C3(COC)CCOCC3)cc2)cc(C(=O)NCc2c(C)cc(C)[nH]c2=O)c1C)C1CCOCC1` [Compound 5, N-((4,6-dimethyl-2-carbonyl-1,2-dihydropyridin-3-yl)methyl)-5-(ethyl(tetrahydro-2H-pyran-4-yl)amino)-4′-(4-(methoxymethyl)tetrahydro-2H-pyran-4-yl)-4-methyl-[1,1′-biphenyl]-3-carboxamide], the IC50 with WSU-DLCL2 cells (setting [2]) was 5.85 nM; in the data set with Pfeiffer cells (setting [4]) it was 2.84 nM; in the data set with Karpas 422 cells (setting [3]) it was 3.23 nM.

One may read the bioavailability as the share of a dose that reaches the circulation, judged against a reference dose that is usually intravenous. Broadly, the AUC is concentration integrated over time. For orientation: Cmax means the peak of the concentration-time curve. Take `CCN(c1cc(-c2ccc3c(c2)CCC3N2CCOCC2)cc(C(=O)NCc2c(OC)cc(C)[nH]c2=O)c1C)C1CCOCC1` (stereo not shown) [Compound 6, 3-(ethyl(tetrahydro-2H-pyran-4-yl)amino)-N-((4-methoxy-6-methyl-2-oxo-1,2-dihydropyridin-3-yl)methyl)-2-methyl-5-(1-morpholino-2,3-dihydro-1H-inden-5-yl)benzamide]: the IC50 in the data set on WSU-DLCL2 cells (setting [2]) was 5.13 nM; on wild-type EZH2, 0.52 nM; in the data set on Pfeiffer cells (setting [4]) it was 3.2 nM; in the data set with Karpas 422 cells (setting [3]), 4.15 nM. Besides, in data set [1], the bioavailability was found to be 33.3%. Also, the AUC in data set [1] (intravenous dosing 4 mg/kg) is 966 ng·h/mL; in data set [1] (oral dosing 20 mg/kg) it was 1610 ng·h/mL. In data set [1] (intravenous dosing 4 mg/kg), the half-life was 1.12 h. Besides, in data set [1] (oral dosing 20 mg/kg), the Cmax was 456 ng/mL.

As to `CCN(c1cc(-c2ccc(C3(C#N)CCOCC3)cc2)c(Cl)c(C(=O)NCc2c(C)cc(C)[nH]c2=O)c1C)C1CCOCC1` [Compound 9, 2-chloro-4′-(4-cyanotetrahydro-2H-pyran-4-yl)-N-((4,6-dimethyl-2-oxo-1,2-dihydropyridin-3-yl)methyl)-5-(ethyl(tetrahydro-2H-pyran-4-yl)amino)-4-methyl-[1,1′-biphenyl]-3-formamide], the IC50 with WSU-DLCL2 cells (setting [2]) was 4.68 nM; against wild-type EZH2 it was 0.9 nM; with Pfeiffer cells (setting [4]), 3.47 nM; on Mutant EZH2 (Y641F), 0.48 nM; in the data set with Karpas 422 cells (setting [3]) it was 4.15 nM.

As to `CCN(c1cc(-c2ccc3c(c2)CCC3N2CCOCC2)c(F)c(C(=O)NCc2c(C)cc(C)[nH]c2=O)c1C)C1CCOCC1` (stereo not shown) [Compound 11, N-((4,6-dimethyl-2-oxo-1,2-dihydropyridin-3-yl)methyl)-3-(ethyl (tetrahydro-2H-pyran-4-yl)amino)-6-fluoro-2-methyl-5-(1-morpholino-2,3-dihydro-1H-inden-5-yl)benzamide], the IC50 with WSU-DLCL2 cells (setting [2]) was 2.92 nM; against wild-type EZH2, 0.6 nM; with Pfeiffer cells (setting [4]), 1.08 nM; on Mutant EZH2 (Y641F) it was 0.54 nM; in the data set with Karpas 422 cells (setting [3]), 1.87 nM. In data set [1], the bioavailability turned out to be 26.6%. The figures for the AUC in data set [1] (intravenous dosing 4 mg/kg) and in data set [1] (oral dosing 20 mg/kg) were 954 ng·h/mL and 1270 ng·h/mL, respectively. Besides, the half-life in data set [1] (intravenous dosing 4 mg/kg) is 1.34 h. Also, in data set [1] (oral dosing 20 mg/kg), the Cmax came out at 489 ng/mL.

With `CCN(c1cc(-c2ccc3c(c2)CCC3N2CCOCC2)cc(C(=O)NCc2c(C)cc(C)[nH]c2=O)c1C)C1CC(C)OC(C)C1` (stereo not shown) [Compound 13, N-((4,6-dimethyl-2-oxo-1,2-dihydropyridin-3-yl)methyl)-3-((2,6-dimethyltetrahydro-2H-pyran-4-yl)(ethyl)amino)-2-methyl-5-(1-morpholino-2,3-di hydro-1H-inden-5-yl)benzamide], the IC50 was 1.28 nM in the data set on WSU-DLCL2 cells (WSUDLCL2, […]); 0.95 nM against wild-type EZH2; 0.87 nM in the data set on Pfeiffer cells ([…]); 0.81 nM against Mutant EZH2 (Y641F); 0.95 nM with Karpas 422 cells (KARPAS-422, […]). Besides, the bioavailability in data set [1] worked out at 34.5%. The AUC in data set [1] (intravenous dosing 4 mg/kg) came to 977 ng·h/mL; in data set [1] (oral dosing 20 mg/kg), 1690 ng·h/mL. Moreover, in data set [1] (intravenous dosing 4 mg/kg), the half-life was 1.34 h. In addition, the Cmax in data set [1] (oral dosing 20 mg/kg) worked out at 403 ng/mL.

As for `CCN(c1cc(-c2ccc3c(c2)CCC3N2CCOCC2)cc(C(=O)NCc2c(C)cc(C)[nH]c2=O)c1C)C1CCOC(C)C1` (stereo not shown) [Compound 14, N-((4,6-dimethyl-2-oxo-1,2-dihydropyridin-3-yl)methyl)-3-((2-methyltetrahydro-2H-pyran-4-yl)(ethyl)amino)-2-methyl-5-(1-morpholino-2,3-dihydro-1H-inden-5-yl)benzamide], the IC50 in the data set with WSU-DLCL2 cells (setting [2]) is 4.15 nM; with Pfeiffer cells (setting [4]), 2.89 nM; with Karpas 422 cells (setting [3]), 3.76 nM.

For `CCN(c1cc(N2Cc3ccc(N(C)C)cc3C2)cc(C(=O)NCc2c(C)cc(C)[nH]c2=O)c1C)C1CCOCC1` [Compound 17, N-((4,6-dimethyl-2-oxo-1,2-dihydropyridin-3-yl)methyl)-5-(5-(dimethylamino)isoindolin-2-yl)-3-(ethyl(tetrahydro-2H-pyran-4-yl)amino)-2-methylbenzamide], the IC50 is 3.71 nM with WSU-DLCL2 cells (setting [2]), 1.27 nM in the data set on Pfeiffer cells (setting [4]) and 2.6 nM with Karpas 422 cells (setting [3]).

In the case of `C=CC(=O)Nc1ccc2c(c1)CN(c1cc(C(=O)NCc3c(C)cc(C)[nH]c3=O)c(C)c(N(CC)C3CCOCC3)c1)C2` [Compound 19, 5-(5-acrylamidoisoindolin-2-yl)-N-((4,6-dimethyl-2-oxo-1,2-dihydropyridin-3-yl)methyl)-3-(ethyl(tetrahydro-2H-pyran-4-yl)amino)-2-methylbenzamide], the IC50 with WSU-DLCL2 cells (setting [2]) is 7.75 nM; against wild-type EZH2, 0.61 nM; with Pfeiffer cells (setting [4]) it was 2.34 nM; in the data set on Karpas 422 cells (setting [3]) it was 3.21 nM; on Mutant EZH2 (Y641N) it was 0.08 nM.

As for `CCN(c1cc(N2Cc3ccc(CN4CCOCC4)cc3C2)cc(C(=O)NCc2c(C)cc(C)[nH]c2=O)c1C)C1CCOCC1` [Compound 20, N-((4,6-dimethyl-2-oxo-1,2-dihydropyridin-3-yl)methyl)-3-(ethyl (tetrahydro-2H-pyran-4-yl)amino)-2-methyl-5-((5-morpholinomethyl)isoindolin-2-yl)benzamide], the IC50 was 7.84 nM with WSU-DLCL2 cells (setting [2]), 2.85 nM in the data set with Pfeiffer cells (setting [4]) and 3.62 nM with Karpas 422 cells (setting [3]).

In the case of `CCN(c1ccc2c(c1)CN(c1cc(C(=O)NCc3c(C)cc(C)[nH]c3=O)c(C)c(N(CC)C3CCOCC3)c1)C2)C1CCOCC1` [Compound 22, N-((4,6-dimethyl-2-oxo-1,2-dihydropyridin-3-yl)methyl)-3-(ethyl (tetrahydro-2H-pyran-4-yl)amino)-5-(5-(ethyl(tetrahydro-2H-pyran-4-yl)amino)isoindolin-2-yl)-2-methylbenzamide], the IC50 is 6.38 nM with WSU-DLCL2 cells (setting [2]), 0.71 nM against wild-type EZH2, 1.87 nM in the data set on Pfeiffer cells (setting [4]) and 3.67 nM in the data set on Karpas 422 cells (setting [3]).

As for `CCN(c1cc(-c2cc(F)c3c(c2)CCC3N2CCOCC2)cc(C(=O)NCc2c(C)cc(C)[nH]c2=O)c1C)C1CCOCC1` (stereo not shown) [Compound 26], the IC50 was 9.42 nM in the data set with WSU-DLCL2 cells (setting [2]), 5.86 nM with Pfeiffer cells (setting [4]) and 6.47 nM in the data set on Karpas 422 cells (setting [3]).

As to `CCN(c1cc(-c2ccc3c(c2)C(C)(C)CC3N2CCOCC2)cc(C(=O)NCc2c(C)cc(C)[nH]c2=O)c1C)C1CCOCC1` (stereo not shown) [Compound 27], the IC50 with WSU-DLCL2 cells (setting [2]) is 1.71 nM.
